Experimental data as given in paper PMC4822888, “Subtype-Selective Small Molecule Inhibitors Reveal a Fundamental Role for Nav1.7 in Nociceptor Electrogenesis, Axonal Conduction and Presynaptic Release” (PLoS ONE, 2016).
Several values for one entry are separate records, joined by “and”; a condition that tells them apart may be missing. Equal values may be shown once.

Columns and labels:
Serotonin 5-HT4 = Serotonin 5-HT4 (Homo sapiens, UniProt Q13639); test: Off target activity panel; type: binding; settings: read-out: Inhibition at test concentration (%)
Sigma receptor = test: Off target activity panel; type: binding; settings: 10 µM
cynNav1.7 = cynNav1.7 (Macaca fascicularis, UniProt A0A2K5WIF4); test: cell-based; type: cell-based, cynomologus macaque
Cyclooxegenase 2 = Cyclooxegenase 2 (Homo sapiens, UniProt P35354); test: Off target activity panel; type: biochemical
Neurokinin NK1 receptor = Neurokinin NK1 receptor (Homo sapiens, UniProt P25103); test: Off target activity panel; type: binding; settings: read-out: Inhibition at test concentration (%)
Melanocortin 4 receptor = Melanocortin 4 receptor (Homo sapiens, UniProt P32245); test: Off target activity panel; type: binding; settings: read-out: Inhibition at test concentration (%)
PDE6 = test: Off target activity panel; type: biochemical; settings: 10 µM
Dopamine D3 receptor = Dopamine D3 receptor (Homo sapiens, UniProt P35462); test: Off target activity panel; type: binding; settings: read-out: Inhibition at test concentration (%)
Carbonic anhydrase II = Carbonic anhydrase II (Homo sapiens, UniProt P00918); test: Off target activity panel; type: biochemical; settings: read-out: Inhibition at test concentration (%)
Acetylcholinesterase = Acetylcholinesterase (Homo sapiens, UniProt P22303); test: Off target activity panel; type: biochemical; settings: read-out: Inhibition at test concentration (%)
PDE2A = PDE2A (Homo sapiens, UniProt O00408); test: Off target activity panel; type: biochemical; settings: read-out: Inhibition at test concentration (%)
human TRPV1 receptor = human TRPV1 receptor (Homo sapiens, UniProt Q8NER1); test: Blockade of human TRPV1 receptor
Dopamine transporter = Dopamine transporter (Homo sapiens, UniProt Q01959); test: Off target activity panel; type: binding; settings: read-out: Inhibition at test concentration (%)
PPAR gamma [1] = target: T1, PPAR gamma (Homo sapiens, UniProt P37231); test: Off target activity panel; type: binding
T1 sequence (P37231 1-505): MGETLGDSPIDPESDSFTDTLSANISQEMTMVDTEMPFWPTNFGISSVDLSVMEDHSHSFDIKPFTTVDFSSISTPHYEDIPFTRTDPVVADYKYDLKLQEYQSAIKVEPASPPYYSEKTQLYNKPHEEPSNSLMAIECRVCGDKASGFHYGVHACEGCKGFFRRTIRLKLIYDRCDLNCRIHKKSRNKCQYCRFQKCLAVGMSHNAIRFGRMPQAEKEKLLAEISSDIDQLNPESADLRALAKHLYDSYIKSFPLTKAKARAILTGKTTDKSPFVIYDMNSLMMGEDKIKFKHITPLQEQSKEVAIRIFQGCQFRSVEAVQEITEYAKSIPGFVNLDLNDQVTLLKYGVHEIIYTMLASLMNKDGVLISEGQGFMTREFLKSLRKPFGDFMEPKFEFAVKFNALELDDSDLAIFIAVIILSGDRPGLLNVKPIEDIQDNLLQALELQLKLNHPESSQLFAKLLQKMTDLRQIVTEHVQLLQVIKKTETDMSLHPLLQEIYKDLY

Histamine H1 receptor = Histamine H1 receptor (Homo sapiens, UniProt P35367); test: Off target activity panel; type: binding; settings: read-out: Inhibition at test concentration (%)
Serotonin 5-HT1B = Serotonin 5-HT1B (Homo sapiens, UniProt P28222); test: Off target activity panel; type: binding; settings: read-out: Inhibition at test concentration (%)
GABA transporter = test: Off target activity panel; type: binding; settings: 10 µM
PDE4 rolipram binding = test: Off target activity panel; settings: 10 µM
Neurokinin NK2 receptor = Neurokinin NK2 receptor (Homo sapiens, UniProt P21452); test: Off target activity panel; type: binding; settings: read-out: Inhibition at test concentration (%)
[2] = system: Calcium channel L-type (verapamil site); test: Off target activity panel; type: binding; settings: 10 µM
[3] = system: Muscle-type nicotinic receptor; test: Off target activity panel; type: binding; settings: 10 µM
Delta opioid receptor = Delta opioid receptor (Homo sapiens, UniProt P41143); test: Off target activity panel; type: binding; settings: read-out: Inhibition at test concentration (%)
[4] = system: human DRG neurons (hDRG neurons); test: Voltage clamp of TTX-S current in human DRG neurons; type: cell-based
PPAR gamma [5] = target: T1, PPAR gamma; test: Off target panel, functional activity (agonist/antagonist); type: biochemical; settings: at 10 µM
Serotonin 5-HT6 = Serotonin 5-HT6 (Homo sapiens, UniProt P50406); test: Off target activity panel; type: binding; settings: read-out: Inhibition at test concentration (%)
Histamine H3 receptor = Histamine H3 receptor (Homo sapiens, UniProt Q9Y5N1); test: Off target activity panel; type: binding; settings: read-out: Inhibition at test concentration (%)
[6] = Off target activity panel; type: binding; settings: read-out: Inhibition at test concentration (%)
[7] = target: Adrenergic alpha 2A receptor (Homo sapiens, UniProt P08913); test: Off target activity panel; type: binding; settings: read-out: Inhibition at test concentration (%)
PDE11 = PDE11 (Homo sapiens, UniProt Q9HCR9); test: Off target activity panel; type: biochemical; settings: read-out: Inhibition at test concentration (%)
Serotonin 5-HT2C = Serotonin 5-HT2C (Homo sapiens, UniProt P28335); test: Off target activity panel (first 5-HT2C line); type: binding; settings: read-out: Inhibition at test concentration (%)
[8] = target: Serotonin 5-HT transporter (Homo sapiens, UniProt P31645); test: Off target activity panel; type: binding; settings: read-out: Inhibition at test concentration (%)
Serotonin 5-HT2A = Serotonin 5-HT2A (Homo sapiens, UniProt P28223); test: Off target activity panel; type: binding; settings: read-out: Inhibition at test concentration (%)
[9] = system: NMDA receptor (phencyclidine site); test: Off target activity panel; type: binding; settings: 10 µM
[10] = system: Nictotinic acetylcholine receptor; test: Off target activity panel; type: binding; settings: 10 µM
L-type calcium channels = test: Blockade of L-type calcium channels
[11] = system: human DRG neurons (hDRG neurons); test: Current clamp of action potentials in human DRG neurons; type: cell-based
Adenosine A3 receptor = Adenosine A3 receptor (Homo sapiens, UniProt P0DMS8); test: Off target activity panel; type: binding; settings: read-out: Inhibition at test concentration (%)
[12] = 10 µM, read-out: Inhibition at test concentration (%)

With `Nc1[nH]ncc1-c1cc(Cl)ccc1Oc1cc(F)c(S(=O)(=O)Nc2cscn2)cc1Cl` [PF-05089771, 4-[2-(5-amino-1H-pyrazol-4-yl)-4-chlorophenoxy]-5-chloro-2-fluoro-N-(1,3-thiazol-4-yl)benzenesulfonamide] the inhibition at 10 µM (Serotonin 5-HT4) was -7%, the “Inhibition at test concentration (%)” value (Sigma receptor) was -8% and the IC50 (cynNav1.7) was 12 nM. It also gave a Slope (cynNav1.7; cynNav1.7) of 1.1, an inhibition at 10 µM (Cyclooxegenase 2; [12]) of 72% and a Ki (Cyclooxegenase 2; Cyclooxegenase 2) of 5400 nM. For the same compound, the inhibition at 10 µM (Neurokinin NK1 receptor) was 5%, the inhibition at 10 µM (Melanocortin 4 receptor) was -11% and the “Inhibition at test concentration (%)” value (PDE6) was 7%. For the same compound, the inhibition at 10 µM (Dopamine D3 receptor) was 16%, the inhibition at 10 µM (Carbonic anhydrase II) was 21% and the inhibition at 10 µM (Acetylcholinesterase) was 17%. The inhibition at 10 µM (PDE2A) was 9%, the Functional activity (human TRPV1 receptor; at 20 µM, TRPV1) was “No agonist or antagonist activity at 20 µM” and the “Blockade of human TRPV1 receptor” value (human TRPV1 receptor; tested concentrations up to 20 μM) was “No blockade”. The inhibition at 10 µM (Dopamine transporter) was 18%, the inhibition at 10 µM (PPAR gamma [1]; [12]) was 60% and the Ki (PPAR gamma [1]; PPAR gamma) was 2800 nM. The inhibition at 10 µM (Histamine H1 receptor) was 12%, the inhibition at 10 µM (Serotonin 5-HT1B) was 6% and the “Inhibition at test concentration (%)” value (GABA transporter) was 1%. The “Inhibition at test concentration (%)” value (PDE4 rolipram binding) was 10%, the inhibition at 10 µM (Neurokinin NK2 receptor) was -10% and the “Inhibition at test concentration (%)” value [2] was -6%. For the same compound, the “Inhibition at test concentration (%)” value [3] was 2%, the inhibition at 10 µM (Delta opioid receptor) was 15% and the “Block of TTX-S current” value ([4]; 30 nM, in presence of A-803467) was 75.5 ± 10.5%. For the same compound, the “Block of TTX-S current” value ([4]; 100 nM) was “complete block”, the IC50 ([4]; DRG neuron, read-out: IC50 for TTX-S current block) was 8.4 ± 1.2 nM and the Functional activity (PPAR gamma [5]) was “no agonist or antagonist activity at 10 µM”. For the same compound, the inhibition at 10 µM (Serotonin 5-HT6) was 2%, the inhibition at 10 µM (Histamine H3 receptor) was 10% and the inhibition at 10 µM [6] was 64%. For the same compound, the inhibition at 10 µM [7] was 10%, the inhibition at 10 µM (PDE11) was 6% and the inhibition at 10 µM (Serotonin 5-HT2C) was -4%. The inhibition at 10 µM [8] was 0%, the inhibition at 10 µM (Serotonin 5-HT2A) was -2% and the “Inhibition at test concentration (%)” value [9] was -3%. For the same compound, the “Inhibition at test concentration (%)” value [10] was -7%, the IC50 (L-type calcium channels) was 10000 nM and the “Neurons with action potential block” value ([11]; 30 nM) was 3 out of 7 and 3/7. The “Neurons with action potential failure” value ([11]; 100 nM) was 5 out of 8 and 5/8 and the inhibition at 10 µM (Adenosine A3 receptor) was 4%.
